Here are results for two compounds from paper PMC9011347, “Small-Molecule Inhibitors Targeting Lipolysis in Human Adipocytes” (Journal of the American Chemical Society, 2022).

This experiment deals with T1, c9 (mouse ATGL with humanized T101, C106, R109, N111, S133) (Mus musculus, UniProt Q8BJ56, C106S/N111S/R109H/S133N/T101V).
T1 construct: host or cells: Expi293 cells, cell lysate
Put plainly: TAG hydrolase assay, chimeric ATGL variants. The format is biochemical, human and mouse. Conditions: variant c9, NG-497 (10 μM) or Atglistatin (10 μM). The protocol: Figure 5 Analysis of chimeric proteins comprising human and mouse ATGL. (a) Schematic view of the minimal active domain of wild-type and chimeric ATGL variants (c1–c9). Nonidentical aa are indicated in blue and red for mouse and human ATGL, respectively. ATGL variants were expressed in Expi293 cells and TAG hydrolase activity was determined in cell lysates in the presence or absence of NG-497 (10 μM) and Atglistatin (10 μM), respectively. Inhibition of ATGL variants by respective inhibitors (tick mark) and lack of inhibition (cross) is indicated at the right edge. The expression of all ATGL variants was confirmed by Western blotting analysis (Figure S6). (b) Dose-dependent inhibition of human ATGL (aa 1–288) and c1 (human aa 1–158 and mouse aa 159–288) by NG-497. (c) Dose-dependent inhibition of mouse ATGL (aa 1–288) and c2 (mouse aa 1–158 and human aa 159–288) by Ai. IC50 values are shown in the insets. Data are presented as relative inhibition of respective DMSO controls and are indicated as mean ± SD. (d) 3D homology model of the minimal active domain of mouse ATGL (M1–L254) depicted as a cartoon. Residues 1–178 are in blue, and residues 179–254 are in gray. […]
Expression of recombinant ATGL constructs and preparation of cell lysates. […] Protein concentrations were determined using Bio-Rad protein assay (Bio-Rad 785, Bio-Rad Laboratories, Munich, Germany) using BSA as standard. […]

T1 sequence (Q8BJ56 1-288 T101V/C106S/R109H/N111S/S133N limits assumed): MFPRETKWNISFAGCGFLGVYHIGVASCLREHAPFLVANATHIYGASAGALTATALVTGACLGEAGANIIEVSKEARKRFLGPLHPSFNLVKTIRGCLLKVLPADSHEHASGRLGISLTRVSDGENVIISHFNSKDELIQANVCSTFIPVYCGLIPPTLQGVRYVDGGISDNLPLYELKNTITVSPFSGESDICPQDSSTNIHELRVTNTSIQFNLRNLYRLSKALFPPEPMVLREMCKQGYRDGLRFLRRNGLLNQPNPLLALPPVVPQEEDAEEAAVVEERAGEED

For the compound `CN(C)C(=O)Nc1cccc(-c2ccc(N(C)C)cc2)c1` [Atglistatin, reference compound], the “inhibition of TAG hydrolase activity” value is listed as “preserved Ai binding”. Consider `CCOc1ccc(-c2cc(OC)cc(C(=O)OC(C)C)n2)cc1` [NG-497], for which the “inhibition of TAG hydrolase activity” value is reported as “ineffective”.
